Reference: article PMC12675575, “A BRET biosensor for measuring uncompetitive engagement of PRMT5 complexes in cells” (Nature Communications, 2025)
Values joined by “and” are separate entries in the source; they are usually repeats but may differ in a detail not shown here. Identical values can stand only once. Like-named read-outs stand apart in the source and are kept apart here.

Key:
NLuc-PRMT5 = NLuc-PRMT5 (Homo sapiens, UniProt O14744); test: BRET probe sensitivity to exogenous MTA in live HEK293 cells expressing NLuc-PRMT5; assay type: cell-based; set-up: host or cells: HEK293 (live cells; digitonin lysate for the SAM titration); conditions: for remaining activity at […] / remaining activity at 1000 µM: Log([MTA]), room temperature, read-out: Normalized BRET probe signal; for remaining activity at 1000 µM: uM 3.00
Chain of NLuc-PRMT5 (O14744 whole entry): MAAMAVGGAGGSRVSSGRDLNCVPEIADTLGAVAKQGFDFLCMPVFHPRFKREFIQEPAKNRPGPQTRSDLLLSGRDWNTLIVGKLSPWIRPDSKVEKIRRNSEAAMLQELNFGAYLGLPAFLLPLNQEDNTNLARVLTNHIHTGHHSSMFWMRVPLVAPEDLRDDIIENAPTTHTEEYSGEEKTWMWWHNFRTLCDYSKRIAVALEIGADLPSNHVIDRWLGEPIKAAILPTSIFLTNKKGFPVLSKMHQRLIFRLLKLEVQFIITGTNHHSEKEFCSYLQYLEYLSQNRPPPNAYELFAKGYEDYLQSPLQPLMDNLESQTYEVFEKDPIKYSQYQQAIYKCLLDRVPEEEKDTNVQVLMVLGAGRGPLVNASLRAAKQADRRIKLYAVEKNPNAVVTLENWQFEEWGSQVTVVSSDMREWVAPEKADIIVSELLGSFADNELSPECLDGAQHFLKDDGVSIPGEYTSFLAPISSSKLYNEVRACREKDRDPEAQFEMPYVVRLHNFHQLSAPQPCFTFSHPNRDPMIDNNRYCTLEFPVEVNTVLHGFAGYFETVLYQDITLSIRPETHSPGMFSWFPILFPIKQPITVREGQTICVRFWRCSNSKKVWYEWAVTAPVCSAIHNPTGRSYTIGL
Chain of NLuc-PRMT5 (Q9BQA1 whole entry partner): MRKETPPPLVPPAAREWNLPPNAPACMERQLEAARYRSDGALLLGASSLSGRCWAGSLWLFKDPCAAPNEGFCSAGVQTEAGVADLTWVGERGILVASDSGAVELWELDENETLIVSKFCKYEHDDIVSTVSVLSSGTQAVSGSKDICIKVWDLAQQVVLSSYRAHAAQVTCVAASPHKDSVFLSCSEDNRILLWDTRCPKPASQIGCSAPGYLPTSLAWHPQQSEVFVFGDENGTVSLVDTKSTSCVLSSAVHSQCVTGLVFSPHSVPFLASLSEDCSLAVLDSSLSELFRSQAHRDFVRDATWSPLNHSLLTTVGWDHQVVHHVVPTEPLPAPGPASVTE
Method: To measure BRET probe sensitivity to both MAT2A inhibition and exogenous MTA in live cells, HEK293 cells were pre-treated with 30 nM CBH-002 and incubated at 37 °C and 5% CO2 for 2 h. For MAT2A inhibition, a 20 µM, 3-fold, 11 pt titration series of Compound A (Selleckchem) was added to wells. Cells were incubated either at 37 °C (Fig. 3D) or room temperature (Fig. S3D). Data were normalized using Eq. (2), where BRETMIN = instrument background (no CBH-002), and BRETMAX = 2 h vehicle treatment, and fit curves were generated using Eq. (1). For MTA sensitivity cells were treated with a 1 mM, 11 pt, 2-fold series of MTA (Sigma) and cells were incubated at room temperature for 2 h, reading in 15 min intervals. Data were normalized using Eq. (2), where BRETMIN = instrument background (no CBH-002), and BRETMAX = 2 h + vehicle treatment. Data were fit with Eq. (1).

NL-PRMT5 with WDR77 = target: T1, NL-PRMT5 with WDR77 (Homo sapiens, UniProt O14744); test: MRTX1719 kinetic washout (residence time) NanoBRET experiment in HEK293 cells; assay type: cell-based; conditions: 100uM MTA
T1 construct: host or cells: HEK293
T1 sequence (O14744 whole entry): as the sequence (O14744 whole entry) above
T1 sequence (Q9BQA1 whole entry partner): as the sequence (Q9BQA1 whole entry partner) above
Method: On the next day, cells were resuspended in a 15 mL falcon tube and adjusted to 2 × 10^5 cells/mL in assay medium (OptiMEM with 1% FBS). […] After incubation, cells were centrifuged at 300 × g for 5 min, medium was aspirated and cells were washed with pre-warmed assay medium, centrifuged again and adjusted to 2 × 10^5 cells/mL. For the full occupancy control, MTA and compound concentrations were maintained. 34 μL of cells were added per well in a seeded into 96-well non-binding surface-treated plates (Corning), followed by addition of 36 μL of Complete 2x Substrate (prepared by combining Nano-Glo Substrate and Extracellular NanoLuc Inhibitor in Opti-MEM, according to the manufacturer’s protocol (Promega)). Then, 2 μL of ETP CBH-002 at a final concentration of 30 nM were added before immediate readout at the PheraSTAR FSX for 6 h. Readout and analysis were conducted as described earlier.

remaining activity at […] (NLuc-PRMT5; HEK293, 0.5 h, uM 0.29, Time (min) 30): 98.1% | remaining activity at […] (NLuc-PRMT5; HEK293, 0.5 h, uM 0.59, Time (min) 30): 97.9% | remaining activity at […] (NLuc-PRMT5; HEK293, 0.5 h, uM 0.89, Time (min) 30): 99.1% | remaining activity at […] (NLuc-PRMT5; HEK293, 0.5 h, uM 1.19, Time (min) 30): 97.4% | remaining activity at […] (NLuc-PRMT5; HEK293, 0.5 h, uM 1.49, Time (min) 30): 95.2% | remaining activity at […] (NLuc-PRMT5; HEK293, 0.5 h, uM 1.80, Time (min) 30): 93% | remaining activity at […] (NLuc-PRMT5; HEK293, 0.5 h, uM 2.10, Time (min) 30): 90.2% | remaining activity at […] (NLuc-PRMT5; HEK293, 0.5 h, uM 2.40, Time (min) 30): 87.8% | remaining activity at […] (NLuc-PRMT5; HEK293, 0.5 h, uM 2.70, Time (min) 30): 86.4% | remaining activity at 1000 µM (NLuc-PRMT5; HEK293, 0.5 h, Time (min) 30): 85.4% | remaining activity at […] (NLuc-PRMT5; HEK293, 1 h, uM 0.29, Time (min) 60): 99.2% | remaining activity at […] (NLuc-PRMT5; HEK293, 1 h, uM 0.59, Time (min) 60): 99.7% | remaining activity at […] (NLuc-PRMT5; HEK293, 1 h, uM 0.89, Time (min) 60): 98.1% | remaining activity at […] (NLuc-PRMT5; HEK293, 1 h, uM 1.19, Time (min) 60): 96.8% | remaining activity at […] (NLuc-PRMT5; HEK293, 1 h, uM 1.49, Time (min) 60): 94.8% | remaining activity at […] (NLuc-PRMT5; HEK293, 1 h, uM 1.80, Time (min) 60): 91.1% | remaining activity at […] (NLuc-PRMT5; HEK293, 1 h, uM 2.10, Time (min) 60): 87.7% | remaining activity at […] (NLuc-PRMT5; HEK293, 1 h, uM 2.40, Time (min) 60): 84.6% | remaining activity at […] (NLuc-PRMT5; HEK293, 1 h, uM 2.70, Time (min) 60): 79.9% | remaining activity at 1000 µM (NLuc-PRMT5; HEK293, 1 h, Time (min) 60): 78.1% | remaining activity at […] (NLuc-PRMT5; HEK293, 2 h, uM 0.29, Time (min) 120): 98.3% | remaining activity at […] (NLuc-PRMT5; HEK293, 2 h, uM 0.59, Time (min) 120): 98.5% | remaining activity at […] (NLuc-PRMT5; HEK293, 2 h, uM 0.89, Time (min) 120): 97.2% | remaining activity at […] (NLuc-PRMT5; HEK293, 2 h, uM 1.19, Time (min) 120): 96% | remaining activity at […] (NLuc-PRMT5; HEK293, 2 h, uM 1.49, Time (min) 120): 93.7% | remaining activity at […] (NLuc-PRMT5; HEK293, 2 h, uM 1.80, Time (min) 120): 90% | remaining activity at […] (NLuc-PRMT5; HEK293, 2 h, uM 2.10, Time (min) 120): 85.1% | remaining activity at […] (NLuc-PRMT5; HEK293, 2 h, uM 2.40, Time (min) 120): 81.7% | remaining activity at […] (NLuc-PRMT5; HEK293, 2 h, uM 2.70, Time (min) 120): 75.7% | remaining activity at 1000 µM (NLuc-PRMT5; HEK293, 2 h, Time (min) 120): 72.8% | Time to plateau of BRET inhibition (NLuc-PRMT5; live HEK293, room temperature): ~ 2 h | BRET, Figure S5I (NL-PRMT5 with WDR77; time 72 min): 1.398 and 1.341 and 1.428 and 1.319
Compound: CSC[C@H]1O[C@@H](n2cnc3c(N)ncnc32)[C@H](O)[C@@H]1O [MTA, methylthioadenosine]
BRET, Figure S5I (NL-PRMT5 with WDR77; time 0 min): 0.1105 and 0.1241 and 0.1192 and 0.1078 and 0.1088 and 0.1195 and 0.1138 and 0.1151 | BRET, Figure S5I (NL-PRMT5 with WDR77; time 6 min): 0.3119 and 0.3036 and 0.3616 and 0.2837 and 0.2843 and 0.315 and 0.3325 and 0.3197 | BRET, Figure S5I (NL-PRMT5 with WDR77; time 12 min): 0.5293 and 0.4857 and 0.5913 and 0.4586 and 0.456 and 0.5044 and 0.5405 and 0.5123 | BRET, Figure S5I (NL-PRMT5 with WDR77; time 18 min): 0.7285 and 0.6611 and 0.7995 and 0.6306 and 0.6158 and 0.6735 and 0.7234 and 0.6889 | BRET, Figure S5I (NL-PRMT5 with WDR77; time 24 min): 0.8959 and 0.8098 and 0.9637 and 0.7786 and 0.7595 and 0.8227 and 0.869 and 0.8404 | BRET, Figure S5I (NL-PRMT5 with WDR77; time 30 min): 1.03 and 0.937 and 1.09 and 0.9086 and 0.8803 and 0.9486 and 0.9887 and 0.9612 | BRET, Figure S5I (NL-PRMT5 with WDR77; time 36 min): 1.134 and 1.042 and 1.191 and 1.015 and 0.9796 and 1.049 and 1.086 and 1.061 | BRET, Figure S5I (NL-PRMT5 with WDR77; time 42 min): 1.201 and 1.125 and 1.257 and 1.0947 and 1.057 and 1.127 and 1.168 and 1.1428 | BRET, Figure S5I (NL-PRMT5 with WDR77; time 48 min): 1.264 and 1.1938 and 1.301 and 1.164 and 1.1261 and 1.183 and 1.221 and 1.192 | BRET, Figure S5I (NL-PRMT5 with WDR77; time 54 min): 1.305 and 1.245 and 1.342 and 1.215 and 1.178 and 1.2272 and 1.267 and 1.255 | BRET, Figure S5I (NL-PRMT5 with WDR77; time 60 min): 1.34 and 1.2815 and 1.366 and 1.252 and 1.226 and 1.27 and 1.304 and 1.278 | BRET, Figure S5I (NL-PRMT5 with WDR77; time 66 min): 1.37 and 1.322 (2×) and 1.406 and 1.285 and 1.248 and 1.298 and 1.329
